Measured values from patent US11701373B2, “Substituted bicyclic compounds” (BRISTOL-MYERS SQUIBB COMPANY, priority 2014, dated 2023).
Entries after “also recorded” stand apart in the source; their conditions may differ.

Experiments:
Lewis rats = assay: Blood Lymphocyte Reduction (BLR) Assay in rat; assay type: in vivo; conditions: for Percent reduction vs. control at 24 hr post-dose (blood lymphocytes): rat, oral, 0.1 mg/kg
Experimental: (§1) Blood Lymphocyte Reduction (BLR) Assay in Rodent:
(§2) Lewis rats or BALB/c mice were dosed orally with vehicle alone (polyethylene glycol 300, “PEG300”) or with test compounds. Compounds were dosed as a solution or suspension in the vehicle, adjusted to reflect the free amount of test article in the event that salt forms are utilized. Blood was drawn at 24 hr and blood lymphocyte counts were determined on an ADVIA 120 Hematology Analyzer (Siemens Healthcare Diagnostics). The results were measured as a reduction in the percentage of circulating lymphocytes as compared to the vehicle treated group at the time of measurement. The results represent the average results of all animals within each treatment group (n=2-4).

Male Lewis rats = assay: Rat Adjuvant Induced Arthritis Assay (AA); assay type: in vivo; conditions: prophylactic oral dosing regimen
Experimental: Rat Adjuvant Induced Arthritis Assay (AA)
The rat adjuvant-induced arthritis model is an animal model for human rheumatoid arthritis.
Male Lewis rats (150-175 g; Harlan, n=8 treatment group) were immunized at the base of the tail with 100 μl of 10 mg/ml freshly ground Mycobacterium butyricum (Difco Laboratories) in incomplete Freund's adjuvant (sigma). Animals were dosed once daily with the test article (as a solution or suspension in the vehicle) or vehicle alone (polyethylene glycol 300, “PEG300”) starting from the day of immunization. The volumes of their hind paws were measured in a water displacement plethysmometer (Ugo Basile, Italy). The baseline paw measurements were taken before onset of the disease (between day 7 to day 10). The paw measurements were then taken three times a week until the end of the study on day 20 to 21. All procedures involving animals were reviewed and approved by the Institutional Animal Care Use Committee.

Female Lewis rats = assay: Rat Experimental Autoimmune Encephalomyelitis (EAE); assay type: in vivo; conditions: prophylactic oral dosing regimen
Experimental: Rat Experimental Autoimmune Encephalomyelitis (EAE)
Female Lewis rats (150-200 g; Harlan) were immunized at the base of the tail with 0.1 ml of a complete Freund's adjuvant emulsion containing 0.5 mg/mL guinea pig myelin basic protein (Genemed Synthesis) and 2 mg/mL Mycobacterium butyricum (Difco). Beginning on Day 7, rats (n=11/group) were scored individually at least 3×/wk according to the following scheme:
Average clinical scores were calculated for each treatment group on each day of assessment.

C57BL/6 mice = assay: Mouse Experimental Autoimmune Encephalomyelitis Assay (EAE); assay type: in vivo; conditions: for inhibition of disease progression as measured by clinical scores: C57Bl/6 mice, prophylactic oral dosing regimen; for Clinical scores on day 22, Mean: C57BL/6 mice, prophylactic, vehicle mean 4.1
Experimental: Mouse Experimental Autoimmune Encephalomyelitis Assay (EAE)
Mice (C57BL/6 female, 6-8 weeks of age, Charles River, n=10 treatment group) were immunized subcutaneously with 150 μg MOG35-55 emulsified 1:1 with incomplete Freund's adjuvant (sigma) supplemented with 150 μg Mycobacterium tuberculosis H37RA (Difco Laboratories). 400 ng of pertussis toxin (CalBiochem) was injected intraperitoneally on the day of immunization and 2 day later. Clinical scoring and body weight were taken 3 times per week. Clinical scoring system: 0.5: partial tail weakness; 1: limp tail or waddling gait with tail tonicity; 1.5: waddling gait with partial tail weakness; 2: waddling gait with limp tail (ataxia); 2.5: ataxia with partial limb paralysis; 3: full paralysis of one limb; 3.5: full paralysis of one limbs with partial paralysis of a second limb; 4: full paralysis of two limbs; 4.5: moribund; 5: death. Mean clinical score was calculated by averaging the scores of all mice in each group. All procedures involving animals were reviewed and approved by the Institutional Animal Care Use Committee.

BALB/c mice = assay: Blood Lymphocyte Reduction (BLR) Assay in mouse; assay type: in vivo
Experimental: as §1, §2

Male MRL/lpr mice = assay: MRL/lpr Lupus Model (anti-dsDNA antibody titers, kidney histology); assay type: in vivo, mouse; conditions: for Anti-dsDNA antibody titers (23 weeks of age) (Mean): ratio to pooled MRL/lpr immune serum titer; for Kidney Histology (nephritis) 23 weeks of age (Mean): total score, highest possible 36
Experimental: MRL/lpr is a spontaneous model of lupus. Male MRL/lpr mice (Jackson Laboratory) at the age of 12-14 weeks were enrolled for the study (N=12). Mice were dosed p.o. daily with vehicle (18.4% (w/v) hydroxypropyl-b-cyclodextrin in 13.8 mM citric acid) or with Example 681 at 0.06, 0.3, 1.5 mg/kg. Mice were bled every other week for anti-dsDNA antibodies measured by ELISA using pooled serum from diseased MRL/lpr mice as a positive comparator in each assay. The data were expressed in arbitrary units as a ratio of the titer of the test serum to the titer of the pooled MRL/lpr immune serum.
At the end of study, one kidney was collected into 10% neutral buffered formalin and ZincTris fixatives. Fixed tissues were processed into paraffin blocks, sectioned at 3p m, and stained with H&E or PASH. Kidney sections were graded using following criteria: Glomerular Damage: 1. Mesangial matrix thickening, cell proliferation, 2. Crescent formation, cellular deposits/casts in Bowman's space, 3. Cellular infiltration, mononuclear cells in glomerular tufts, 4. Fibrosis of Bowman's capsule. Tubular damage: 1. Infiltration of mononuclear cells, 2. Severity of tubular damage, 3. Protein casts. Tubulo-interstitial damage: 1. Fibrosis, 2. Infiltration of mononuclear cells. Each subcategory was assigned a score from 0-4, with the scores for glomerular indices representing the mean from 20 glomeruli per kidney. The total score for each mouse was the sum of the above 9 subcategories, with the highest possible score=36.

## COCCCCCC1CCc2cc([C@@H]3CC[C@](N)(CO)C3)ccc2C1 (single isomer, unassigned) [Example 674]
Lewis rats
  Percent reduction vs. control at 24 hr post-dose (blood lymphocytes): 30%

## COCCCCCC1CCc2cc([C@@H]3CC[C@](N)(CO)C3)ccc2C1 (single isomer, unassigned) [Example 675]
Lewis rats
  Percent reduction vs. control at 24 hr post-dose (blood lymphocytes): 63%

## COCCCCC[C@H]1CCc2cc([C@H]3CC[C@](N)(CO)C3)ccc2C1 [Example 672, ((1R,3S)-1-amino-3-((S)-6-(5-methoxypentyl)-5,6,7,8-tetrahydronaphthalen-2-yl)cyclopentyl)methanol]
Male Lewis rats
  inhibition of disease progression as measured by reduced paw swelling: showed inhibition of disease progression

## CCOCCC[C@H]1CCc2cc([C@H]3CC[C@](N)(CO)C3)ccc2C1 [Example 678, ((1R,3S)-1-amino-3-((R)-6-(3-ethoxypropyl)-5,6,7,8-tetrahydronaphthalen-2-yl)cyclopentyl)methanol]
Lewis rats
  Percent reduction vs. control at 24 hr post-dose (blood lymphocytes): 16%

## CCOCCC[C@@H]1CCc2cc([C@H]3CC[C@](N)(CO)C3)ccc2C1 [Example 679, ((1R,3S)-1-amino-3-((S)-6-(3-ethoxypropyl)-5,6,7,8-tetrahydronaphthalen-2-yl)cyclopentyl)methanol]
Female Lewis rats
  inhibition of disease progression as measured by reduced clinical scores: showed inhibition of disease progression
Lewis rats
  Percent reduction vs. control at 24 hr post-dose (blood lymphocytes): 65%
C57BL/6 mice
  inhibition of disease progression as measured by clinical scores: showed inhibition of disease progression; also recorded: inhibit disease progression
Male Lewis rats
  inhibition of disease progression as measured by reduced paw swelling: showed inhibition of disease progression

## COc1ccccc1CC[C@H]1CCc2cc([C@H]3CC[C@](N)(CO)C3)ccc2C1 [Example 682, ((1R,3S)-1-amino-3-((R)-6-(2-methoxyphenethyl)-5,6,7,8-tetrahydronaphthalen-2-yl)cyclopentyl)methanol]
Lewis rats
  Percent reduction vs. control at 24 hr post-dose (blood lymphocytes): 17%

## ((1R,3S)-1-amino-3-((S)-6-(2-methoxyphenethyl)-5,6,7,8-tetrahydronaphthalen-2-yl)cyclopentyl)methanol [Example 681]
Lewis rats
  Percent reduction vs. control at 24 hr post-dose (blood lymphocytes): 53%
Lewis rats; rodent BLR assay, 0.1 mg/kg oral, 24 hours post-dose, versus vehicle group
  lymphocyte reduction: 53%
C57BL/6 mice; 0.1 mg/kg oral
  Clinical scores on day 22, Mean: 3.1
C57BL/6 mice; 0.5 mg/kg oral
  Clinical scores on day 22, Mean: 1.1
C57BL/6 mice; 2 mg/kg oral
  Clinical scores on day 22, Mean: 0.8
C57BL/6 mice
  inhibition of disease progression as measured by clinical scores: showed inhibition of disease progression; also recorded: inhibit disease progression
BALB/c mice; mice, 0.5 mg/kg oral, 24 hours post dose
  lymphocyte reduction: 85%
BALB/c mice; mouse, oral, 0.5 mg/kg, 24 hr post-dose
  Mouse Blood Lymphocyte Reduction Assay at 24 hr post-dose Percent reduction vs. control: 85%
Male MRL/lpr mice; 0.06 mg/kg p.o. daily
  Anti-dsDNA antibody titers (23 weeks of age) (Mean): 1.861 arbitrary units
  Kidney Histology (nephritis) 23 weeks of age (Mean): 10.13
Male MRL/lpr mice; 0.3 mg/kg p.o. daily
  Anti-dsDNA antibody titers (23 weeks of age) (Mean): 0.978 arbitrary units
  Kidney Histology (nephritis) 23 weeks of age (Mean): 10.00
Male MRL/lpr mice; 1.5 mg/kg p.o. daily
  Anti-dsDNA antibody titers (23 weeks of age) (Mean): 1.023 arbitrary units
  Kidney Histology (nephritis) 23 weeks of age (Mean): 12.63
Male MRL/lpr mice; p.o. daily
  inhibition of disease progression as measured by anti-dsDNA titers: showed inhibition of disease progression
  inhibition of disease progression as measured by kidney histology: showed inhibition of disease progression
